The record followed here is ChEMBL document CHEMBL1201862, “PubChem BioAssay data set” (2004).

Assay in all cases: growth of human tumour cells (NCI), 48 h
Assay [1] relates to SR.
For assay [2], the system named is OVCAR-3.
The test system of assay [3] is HCC 2998.
In assay [4] the test system is KM12.
The subject of assay [5] is PC-3.
Assay [6] concerns CAKI-1.
In assay [7] the test system is HOP-92.
Assay [8] deals with A549.
Assay [9] has as its system UACC-257.
The test system of assay [10] is HT-29.
In assay [11] the test system is NCI-H226.
The subject of assay [12] is NCI-H460.
For assay [13], the system named is Hs-578T.
For assay [14], the system named is DU-145.
The subject of assay [15] is SK-MEL-28.
Assay [16] has as its system CCRF-CEM.
In assay [17] the test system is UO-31.
The subject of assay [18] is EKVX.
Assay [19] concerns RPMI-8226.
Assay [20] has as its system BT-549.

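Compound exposure: 48 hours, 5 concentrations, 96-well plates. At the GI50, growth is halved.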 Calls of active or inactive are those of the source. Rule as the data show it: active = GI50 up to about 1.1 µM and inactive = higher.

In the case of `CC(=O)O/C=C\OC1CCCC1(c1ccccc1)c1ccccc1` (stereo not given), the GI50 in [1] was 1.98 µM (inactive); in assay [2] it was 2.9 µM (inactive); in assay [3] it was 8.91 µM (inactive); in [4], 3.49 µM (inactive); in assay [5] it was 3.12 µM (inactive); in assay [6] it was 4.5 µM (inactive). Moreover, the GI50 in [7] is 1.82 µM (inactive); in assay [8], 20.4 µM (inactive); in [9], 3.65 µM (inactive); in assay [10], 2.91 µM (inactive); in assay [11], 9.04 µM (inactive); in assay [12] it was 7.26 µM (inactive). In addition, the GI50 is 3.1 µM (inactive) in assay [13]; 3.95 µM (inactive) in [14]; 2.1 µM (inactive) in [15]; 2.37 µM (inactive) in assay [16]; 1.94 µM (inactive) in [17]; 7.5 µM (inactive) in assay [18]. For the same molecule, the GI50 in [19] is 2.65 µM (inactive); in [20] it was 1.95 µM (inactive).

Take `N#Cc1c2c(c(Nc3ccc(Cl)cc3)n3c1nc1ccccc13)CCCC2`: the GI50 was 17 µM (inactive) in assay [1]; 13.4 µM (inactive) in assay [2]; 32.9 µM (inactive) in [3]; 20.3 µM (inactive) in assay [4]; 7.06 µM (inactive) in [5]; 36.5 µM (inactive) in [6]. Besides, the GI50 in [7] is > 37.4 µM (inactive); in assay [8] it was 43 µM (inactive); in [9] it was 48 µM (inactive); in assay [10], 18.5 µM (inactive); in assay [11], > 64.3 µM (inactive); in assay [12] it was 14.8 µM (inactive). For the same molecule, the GI50 in assay [13] is 26.2 µM (inactive); in assay [14] it was > 69.2 µM (inactive); in assay [15] it was > 76 µM (inactive); in assay [16], 34.6 µM (inactive); in [17], > 51.2 µM (inactive); in [18] it was 48.3 µM (inactive). For the same molecule, the GI50 is 4.75 µM (inactive) in assay [19] and > 70.1 µM (inactive) in assay [20].

With `O=C1CSC(c2cccc([N+](=O)[O-])c2)N1c1ccc(-c2ccc(-n3c(-c4ccccc4)nc4ccccc4c3=O)cc2)cc1` (stereo not given), the GI50 in assay [1] was 19.7 µM (inactive); in assay [2], 23.3 µM (inactive); in assay [3], > 100 µM (inactive); in [4], 21.8 µM (inactive); in assay [5], 21.9 µM (inactive); in assay [6], > 100 µM (inactive). Besides, the GI50 in assay [7] was > 100 µM (inactive); in assay [8], 34.6 µM (inactive); in assay [9], 83.2 µM (inactive); in assay [10], 33.4 µM (inactive); in assay [11], 44.1 µM (inactive); in assay [12] it was 25.5 µM (inactive). The GI50 is 49.1 µM (inactive) in [13]; 38.4 µM (inactive) in assay [14]; 43.6 µM (inactive) in assay [15]; 23 µM (inactive) in assay [16]; 18.5 µM (inactive) in assay [17]; 36.3 µM (inactive) in assay [18]. The GI50 was 30 µM (inactive) in [19] and 23.3 µM (inactive) in assay [20].

On to `O=c1[nH]c2c(c(=O)[nH]1)SSC2`, for which the GI50 in assay [1] is 0.275 µM (active); in [2], 19 µM (inactive); in [3], 16.2 µM (inactive); in assay [4], 17.9 µM (inactive); in assay [5] it was 24 µM (inactive); in [6] it was 18.9 µM (inactive). For the same molecule, the GI50 is 2.51 µM (inactive) in [7]; 25.9 µM (inactive) in assay [8]; 4.99 µM (inactive) in [9]; 19.6 µM (inactive) in assay [10]; 19.4 µM (inactive) in [11]; 11.7 µM (inactive) in assay [12]. In addition, the GI50 in [13] was 24.2 µM (inactive); in assay [14] it was 13.8 µM (inactive); in [15] it was 5.79 µM (inactive); in [16], 0.46 µM (active); in assay [17], 11.8 µM (inactive); in assay [18], 21.3 µM (inactive). The GI50 in [19] was 0.838 µM (active); in assay [20], 2.25 µM (inactive).
